Assay results taken from paper PMC9582717 (The Journal of Biological Chemistry, 2022).

Target: T1, SmChiP (chitoporin) (Serratia marcescens, UniProt I7GPX7)
T1 sequence (I7GPX7 28-467): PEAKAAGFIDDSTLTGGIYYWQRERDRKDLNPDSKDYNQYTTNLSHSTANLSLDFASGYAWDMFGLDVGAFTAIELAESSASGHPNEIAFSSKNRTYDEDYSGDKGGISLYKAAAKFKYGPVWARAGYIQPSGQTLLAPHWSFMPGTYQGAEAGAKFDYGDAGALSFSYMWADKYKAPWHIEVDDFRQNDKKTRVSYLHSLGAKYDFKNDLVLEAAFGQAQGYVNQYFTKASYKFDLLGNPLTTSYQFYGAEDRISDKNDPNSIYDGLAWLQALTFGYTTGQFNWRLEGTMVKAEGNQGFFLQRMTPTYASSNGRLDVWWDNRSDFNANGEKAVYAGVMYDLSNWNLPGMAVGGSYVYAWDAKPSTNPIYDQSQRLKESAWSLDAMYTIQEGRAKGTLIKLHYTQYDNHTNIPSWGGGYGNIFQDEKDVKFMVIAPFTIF
Assay: isothermal titration calorimetry
Settings: detergent-solubilized protein; one-site binding model

Row | Kd [µM] | SMILES
1 | 17 ± 0.6 | CC(=O)N[C@H]1[C@H](O[C@H]2[C@H](O)[C@@H](NC(C)=O)[C@H](O[C@H]3[C@H](O)[C@@H](NC(C)=O)C(O)O[C@@H]3CO)O[C@@H]2CO)O[C@H](CO)[C@@H](O[C@@H]2O[C@H](CO)[C@@H](O[C@@H]3O[C@H](CO)[C@@H](O[C@@H]4O[C@H](CO)[C@@H](O)[C@H](O)[C@H]4NC(C)=O)[C@H](O)[C@H]3NC(C)=O)[C@H](O)[C@H]2NC(C)=O)[C@@H]1O (some centres unmarked) [chitohexaose]
2 | 23 ± 2 | CC(=O)N[C@H]1[C@H](O[C@H]2[C@H](O)[C@@H](NC(C)=O)[C@H](O[C@H]3[C@H](O)[C@@H](NC(C)=O)C(O)O[C@@H]3CO)O[C@@H]2CO)O[C@H](CO)[C@@H](O[C@@H]2O[C@H](CO)[C@@H](O[C@@H]3O[C@H](CO)[C@@H](O)[C@H](O)[C@H]3NC(C)=O)[C@H](O)[C@H]2NC(C)=O)[C@@H]1O (some centres unmarked) [chitopentaose]
